Legend:
[1] = system: adolescents with single ventricle physiology after Fontan palliation; assay: Exercise testing (peak VO2 at maximum effort, VO2 at anaerobic threshold); format: in vivo, human; details: for Peak VO2 at Anaerobic Threshold, Baseline measurement / Peak VO2 at Maximum Effort, Baseline measurement: day 1; for Peak VO2 at Anaerobic Threshold, Follow-up measurement / Peak VO2 at Maximum Effort, Follow-up measurement: post-medication, day 5
From the text: Exercise testing can include assessment of VO2 values during maximal effort or at anaerobic threshold. VO2 max, or maximal oxygen consumption, refers to the maximum amount of oxygen that an individual can utilize during intense exercise. This measurement is generally considered a reliable indicator of cardiovascular fitness and aerobic endurance. Theoretically, the more oxygen a person can use during high level exercise, the more energy that person can produce. This test is the gold standard for cardiorespiratory fitness because muscles need oxygen for prolonged (aerobic) exercise; blood carries oxygen to the muscles and the heart must pump adequate amounts of blood to meet the demands of aerobic exercise. VO2 is often measured by putting a mask on a subject, and measuring the volume and gas concentrations of inhaled and expired air. This measurement is often used in both clinical settings and research and is considered the most accurate. Testing commonly involves either exercising on a treadmill or riding a bike at increasing intensity until exhaustion, and is designed to provide readings at a maximal effort of the subject and/or at the subject's anaerobic threshold. The purpose of this example was to evaluate the efficacy of the treatment protocol described in Example 1 using various exercise testing parameters. The primary outcome of this arm of the study was maximal VO2 as determined by exercise testing. Table 14 summarizes results for the key outcome from the exercise testing—peak VO2 (limited to the subjects who achieved maximum effort) by treatment group. Out of the 36 subjects enrolled in the trial, 33 reached max effort in the exercise testing at each of the time points, and 31 subjects at both time points. The first two lines present data for baseline and follow-up measurements, while the third line presents differences between the two measurements (change scores, the outcome for this aim). […] An additional outcome, VO2 at anaerobic threshold, was also measured. Similar analyses were performed for this outcome. Overall results are similar to those for maximal VO2.

[2] = system: adolescents with single ventricle physiology after Fontan palliation; assay: Echocardiographic assessment of ventricular performance (blood pool MPI, tissue Doppler MPI, average isovolumic contraction and relaxation); format: in vivo, human; design: Average Isovolumic Contraction, Baseline measurement / Average Isovolumic Contraction, Follow-up measurement: unit not given here; details: for Average Isovolumetric Relaxation, Follow-up measurement / Average Isovolumetric Relaxation, Baseline measurement: in ms (unit assumed)
From the text: Ventricular performance and cardiac contractility are important measurements that can reveal impairment of cardiovascular health before overt heart failure is present. Ventricular performance can be assessed using echocardiographic methods and quantified via a myocardial performance index or MPI. MPI is an index that combines systolic and diastolic function. Specifically, MPI is defined as the sum of isovolumic contraction time and isovolumic relaxation time divided by the ejection time.
Various versions of MPI are known in the art, and each version of MPI may be used to assess ventricular performance. For instance, MPI indices may include but are not limited to blood pool MPI, tissue doppler MPI, average isovolumetric contraction, and average isovolumetric relaxation.
The primary outcome of ventricular performance with assessed using echocardiographic methods and measured according to a myocardial performance Index (MPI). The MPI is a ventricular geometry-independent measure of combined systolic and diastolic ventricular performance (Charles S. Kleinman et al, 2008—Health and Fitness). It is obtained by indexing the sum of isovolumetric contraction and relaxation time to ejection time.
Table 18 summarizes results for the key outcome from the Echocardiographic Assessment of Ventricular Performance—Blood Pool MPI. Out of the 30 subjects enrolled in the treatment arms of the trial, 27 subjects had paired measurements. The structure of the table is similar to the one for exercise variables.
Tables 19-21 and FIGS. 9-15 report similar results for three other versions of MPI: Tissue Doppler MPI, and Average Isovolumetric Contraction and Relaxation.

## CCCOc1ccc(S(=O)(=O)NCCC2CCCN2C)cc1-c1nc2c(CCC)nn(C)c2c(=O)[nH]1 (stereo not shown) [udenafil]
[1]; 37.5 mg daily
  Peak VO2 at Anaerobic Threshold, Difference, FU − BL: -0.5 ± 4.1 mL/min/kg
  Peak VO2 at Maximum Effort, Difference, FU − BL: -0.8 ± 1.7 mL/min/kg
  Peak VO2 at Anaerobic Threshold, Baseline measurement: 17.2 ± 5.0 mL/min/kg
  Peak VO2 at Maximum Effort, Baseline measurement: 24.6 ± 6.9 mL/min/kg
  Peak VO2 at Anaerobic Threshold, Follow-up measurement: 16.3 ± 2.0 mL/min/kg
  Peak VO2 at Maximum Effort, Follow-up measurement: 24.7 ± 6.7 mL/min/kg
[1]; 37.5 mg twice daily
  Peak VO2 at Anaerobic Threshold, Difference, FU − BL: 0.1 ± 1.0 mL/min/kg
  Peak VO2 at Maximum Effort, Difference, FU − BL: -1.6 ± 5.1 mL/min/kg
  Peak VO2 at Anaerobic Threshold, Baseline measurement: 18.0 ± 3.0 mL/min/kg
  Peak VO2 at Maximum Effort, Baseline measurement: 30.4 ± 6.2 mL/min/kg
  Peak VO2 at Anaerobic Threshold, Follow-up measurement: 18.1 ± 3.0 mL/min/kg
  Peak VO2 at Maximum Effort, Follow-up measurement: 28.8 ± 8.1 mL/min/kg
[1]; 87.5 mg daily
  Peak VO2 at Anaerobic Threshold, Difference, FU − BL: -1.1 ± 1.9 mL/min/kg
  Peak VO2 at Maximum Effort, Difference, FU − BL: -1.4 ± 2.5 mL/min/kg
  Peak VO2 at Anaerobic Threshold, Baseline measurement: 17.6 ± 5.3 mL/min/kg
  Peak VO2 at Maximum Effort, Baseline measurement: 28.4 ± 6.2 mL/min/kg
  Peak VO2 at Anaerobic Threshold, Follow-up measurement: 16.5 ± 4.8 mL/min/kg
  Peak VO2 at Maximum Effort, Follow-up measurement: 27.1 ± 5.0 mL/min/kg
[1]; 87.5 mg twice daily
  Peak VO2 at Anaerobic Threshold, Difference, FU − BL: -1.7 ± 2.1 mL/min/kg
  Peak VO2 at Maximum Effort, Difference, FU − BL: 0.2 ± 5.0 mL/min/kg
  Peak VO2 at Anaerobic Threshold, Baseline measurement: 18.3 ± 4.6 mL/min/kg
  Peak VO2 at Maximum Effort, Baseline measurement: 28.0 ± 5.2 mL/min/kg
  Peak VO2 at Anaerobic Threshold, Follow-up measurement: 16.5 ± 5.2 mL/min/kg
  Peak VO2 at Maximum Effort, Follow-up measurement: 28.2 ± 6.0 mL/min/kg
[1]; 125 mg daily
  Peak VO2 at Anaerobic Threshold, Difference, FU − BL: 1.2 ± 1.9 mL/min/kg
  Peak VO2 at Maximum Effort, Difference, FU − BL: 0.9 ± 2.6 mL/min/kg
  Peak VO2 at Anaerobic Threshold, Baseline measurement: 18.8 ± 1.8 mL/min/kg
  Peak VO2 at Maximum Effort, Baseline measurement: 28.6 ± 3.0 mL/min/kg
  Peak VO2 at Anaerobic Threshold, Follow-up measurement: 20.0 ± 3.2 mL/min/kg
  Peak VO2 at Maximum Effort, Follow-up measurement: 28.6 ± 3.8 mL/min/kg
[2]; 37.5 mg daily, N 5
  Average Isovolumetric Relaxation, Difference, FU − BL: 9.0 ± 11.5
  Average Isovolumic Contraction, Difference, FU − BL: −3.5 ± 50.0
  Average Isovolumic Contraction, Follow-up measurement: 86.4 ± 22.7
  Blood Pool MPI, Difference, FU − BL: −0.052 ± 0.166
  Blood Pool MPI, Follow-up measurement: 0.504 ± 0.187
  Tissue Doppler MPI, Difference, FU − BL: −0.052 ± 0.398
  Tissue Doppler MPI, Follow-up measurement: 0.637 ± 0.206
  Average Isovolumetric Relaxation, Follow-up measurement: 94.0 ± 26.7
[2]; 37.5 mg daily, N 6
  Average Isovolumic Contraction, Baseline measurement: 99.2 ± 50.7
  Blood Pool MPI, Baseline measurement: 0.537 ± 0.304
  Tissue Doppler MPI, Baseline measurement: 0.701 ± 0.417
  Average Isovolumetric Relaxation, Baseline measurement: 83.8 ± 16.1
[2]; 37.5 mg twice daily, N 6
  Average Isovolumetric Relaxation, Difference, FU − BL: 0.8 ± 21.2
  Average Isovolumic Contraction, Baseline measurement: 109.4 ± 51.1
  Average Isovolumic Contraction, Difference, FU − BL: −5.8 ± 25.7
  Average Isovolumic Contraction, Follow-up measurement: 103.6 ± 32.4
  Blood Pool MPI, Baseline measurement: 0.496 ± 0.150
  Blood Pool MPI, Difference, FU − BL: −0.003 ± 0.102
  Blood Pool MPI, Follow-up measurement: 0.494 ± 0.087
  Tissue Doppler MPI, Baseline measurement: 0.818 ± 0.361
  Tissue Doppler MPI, Difference, FU − BL: −0.089 ± 0.142
  Tissue Doppler MPI, Follow-up measurement: 0.729 ± 0.230
  Average Isovolumetric Relaxation, Baseline measurement: 100.8 ± 32.3
  Average Isovolumetric Relaxation, Follow-up measurement: 101.6 ± 40.0
[2]; 87.5 mg daily, N 6
  Average Isovolumetric Relaxation, Difference, FU − BL: −6.9 ± 10.1
  Average Isovolumic Contraction, Baseline measurement: 122.4 ± 36.7
  Average Isovolumic Contraction, Difference, FU − BL: −7.4 ± 26.5
  Average Isovolumic Contraction, Follow-up measurement: 115.0 ± 32.9
  Blood Pool MPI, Baseline measurement: 0.588 ± 0.158
  Blood Pool MPI, Difference, FU − BL: −0.076 ± 0.144
  Blood Pool MPI, Follow-up measurement: 0.512 ± 0.163
  Tissue Doppler MPI, Baseline measurement: 0.804 ± 0.118
  Tissue Doppler MPI, Difference, FU − BL: −0.089 ± 0.131
  Tissue Doppler MPI, Follow-up measurement: 0.716 ± 0.142
  Average Isovolumetric Relaxation, Baseline measurement: 93.4 ± 11.0
  Average Isovolumetric Relaxation, Follow-up measurement: 86.4 ± 15.3
[2]; 87.5 mg twice daily, N 4
  Average Isovolumetric Relaxation, Difference, FU − BL: 5.2 ± 12.6
  Average Isovolumic Contraction, Baseline measurement: 84.1 ± 20.3
  Average Isovolumic Contraction, Difference, FU − BL: 4.1 ± 12.1
  Tissue Doppler MPI, Baseline measurement: 0.540 ± 0.019
  Tissue Doppler MPI, Difference, FU − BL: 0.060 ± 0.068
  Average Isovolumetric Relaxation, Baseline measurement: 72.3 ± 10.5
[2]; 87.5 mg twice daily, N 5
  Blood Pool MPI, Baseline measurement: 0.548 ± 0.136
  Blood Pool MPI, Difference, FU − BL: −0.118 ± 0.090
[2]; 87.5 mg twice daily, N 6
  Average Isovolumic Contraction, Follow-up measurement: 83.8 ± 26.4
  Blood Pool MPI, Follow-up measurement: 0.410 ± 0.078
  Tissue Doppler MPI, Follow-up measurement: 0.638 ± 0.168
  Average Isovolumetric Relaxation, Follow-up measurement: 82.4 ± 11.4
[2]; 125 mg daily, N 5
  Average Isovolumetric Relaxation, Difference, FU − BL: −5.4 ± 11.1
  Average Isovolumic Contraction, Difference, FU − BL: −8.0 ± 24.6
  Average Isovolumic Contraction, Follow-up measurement: 150.5 ± 60.5
  Blood Pool MPI, Difference, FU − BL: −0.054 ± 0.180
  Blood Pool MPI, Follow-up measurement: 0.696 ± 0.202
  Tissue Doppler MPI, Difference, FU − BL: −0.074 ± 0.141
  Tissue Doppler MPI, Follow-up measurement: 0.822 ± 0.271
  Average Isovolumetric Relaxation, Follow-up measurement: 96.8 ± 17.4
[2]; 125 mg daily, N 6
  Average Isovolumic Contraction, Baseline measurement: 152.4 ± 64.4
  Blood Pool MPI, Baseline measurement: 0.728 ± 0.155
  Tissue Doppler MPI, Baseline measurement: 0.861 ± 0.323
  Average Isovolumetric Relaxation, Baseline measurement: 99.5 ± 25.0
[2]; All subjects, N 26
  Average Isovolumetric Relaxation, Difference, FU − BL: 0.1 ± 14.4
  Average Isovolumic Contraction, Difference, FU − BL: −4.6 ± 28.3
  Tissue Doppler MPI, Difference, FU − BL: −0.056 ± 0.198
[2]; All subjects, N 27
  Blood Pool MPI, Difference, FU − BL: −0.059 ± 0.134
[2]; All subjects, N 28
  Average Isovolumic Contraction, Baseline measurement: 115.6 ± 50.5
  Average Isovolumic Contraction, Follow-up measurement: 107.1 ± 41.3
  Blood Pool MPI, Follow-up measurement: 0.517 ± 0.165
  Tissue Doppler MPI, Baseline measurement: 0.760 ± 0.299
  Tissue Doppler MPI, Follow-up measurement: 0.707 ± 0.201
  Average Isovolumetric Relaxation, Baseline measurement: 91.2 ± 22.2
  Average Isovolumetric Relaxation, Follow-up measurement: 92.0 ± 23.8
[2]; All subjects, N 29
  Blood Pool MPI, Baseline measurement: 0.581 ± 0.197
[2]; some patients, baseline to day 5
  Improvement in Blood Pool MPI: ≤ 21.5%

— US10653698B2, “Methods of improving myocardial performance in Fontan patients using udenafil compositions” (priority 2014, dated 2020)
